Measured values reported in the supplement of paper PMC10307832.

Experiments:
Experiment in all cases: relative viability (nuclei count vs DMSO), 5 days (fraction); higher = more cells survive
Omipalisib + Olaparib = compound: COc1ncc(-c2ccc3nccc(-c4ccnnc4)c3c2)cc1NS(=O)(=O)c1ccc(F)cc1F [Omipalisib] + O=C(c1cc(Cc2n[nH]c(=O)c3ccccc23)ccc1F)N1CCN(C(=O)C2CC2)CC1 [Olaparib] (partner 8 µM)
Method in brief: (§1)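 Relative viability divides the nuclei count in treated wells by that in vehicle wells. Lung cancer cell lines were seeded in 1536-well plates, dosed by pin tool the next day, and fixed and stained after 5 days in one step with final 0.05% Triton X-100, 1% formaldehyde and 1 ug/ml Hoechst. Dosing was a single drug or a fixed anchor-drug dose plus five library-drug doses (not always all listed) in √10 steps, and values are medians of duplicate plates imaged at 4×.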

Omipalisib + Crizotinib = compound: COc1ncc(-c2ccc3nccc(-c4ccnnc4)c3c2)cc1NS(=O)(=O)c1ccc(F)cc1F [Omipalisib] + C[C@@H](Oc1cc(-c2cnn(C3CCNCC3)c2)cnc1N)c1c(Cl)ccc(F)c1Cl [Crizotinib] (partner 1 µM)
Method in brief: as §1

Omipalisib + Phenformin = compound: COc1ncc(-c2ccc3nccc(-c4ccnnc4)c3c2)cc1NS(=O)(=O)c1ccc(F)cc1F [Omipalisib] + N=C(N)NC(=N)NCCc1ccccc1 [Phenformin] (partner 250 µM)
Method in brief: as §1

Omipalisib + AZD7762 = compound: COc1ncc(-c2ccc3nccc(-c4ccnnc4)c3c2)cc1NS(=O)(=O)c1ccc(F)cc1F [Omipalisib] + NC(=O)Nc1cc(-c2cccc(F)c2)sc1C(=O)N[C@H]1CCCNC1 [AZD7762] (partner 0.2 µM)
Method in brief: as §1

Omipalisib + Alpelisib = compound: COc1ncc(-c2ccc3nccc(-c4ccnnc4)c3c2)cc1NS(=O)(=O)c1ccc(F)cc1F [Omipalisib] + Cc1nc(NC(=O)N2CCC[C@H]2C(N)=O)sc1-c1ccnc(C(C)(C)C(F)(F)F)c1 [Alpelisib] (partner 2 µM)
Method in brief: as §1

Omipalisib = compound: COc1ncc(-c2ccc3nccc(-c4ccnnc4)c3c2)cc1NS(=O)(=O)c1ccc(F)cc1F [Omipalisib]
Method in brief: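 Five library-drug doses, separated by factors of √10, were pinned into 1536-well plates holding lung cancer cell lines after an overnight stay at 37 °C. Cells were fixed, permeabilised and Hoechst-stained in one step after 5 days without medium change, then imaged at 4×. Viability compares treated-well with vehicle-well nuclei, counted in MetaXpress, as a median across plates. Passing plates had control CV below 25% and at least one doubling.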

Row | Cell Line | relative viability (Omipalisib + Olaparib; first compound 0.0003 µM) | relative viability (Omipalisib + Olaparib; first compound 0.003 µM) | relative viability (Omipalisib + Olaparib; first compound 0.03 µM) | relative viability (Omipalisib + Crizotinib; first compound 0.0003 µM) | relative viability (Omipalisib + Crizotinib; first compound 0.003 µM) | relative viability (Omipalisib + Crizotinib; first compound 0.03 µM) | relative viability (Omipalisib + Phenformin; first compound 0.0003 µM) | relative viability (Omipalisib + Phenformin; first compound 0.003 µM) | relative viability (Omipalisib + Phenformin; first compound 0.03 µM) | relative viability (Omipalisib + AZD7762; first compound 0.0003 µM) | relative viability (Omipalisib + AZD7762; first compound 0.003 µM) | relative viability (Omipalisib + AZD7762; first compound 0.03 µM) | relative viability (Omipalisib + Alpelisib; first compound 0.0003 µM) | relative viability (Omipalisib + Alpelisib; first compound 0.003 µM) | relative viability (Omipalisib + Alpelisib; first compound 0.03 µM) | relative viability (Omipalisib; 0.0003 µM) | relative viability (Omipalisib; 0.003 µM) | relative viability (Omipalisib; 0.03 µM)
1 | NCI-H2405 | 0.854 | 0.679 | 0.388 | 0.852 | 0.769 | 0.408 | 0.401 | 0.285 | 0.184 | 0.725 | 0.484 | 0.312 | 0.79 | 0.633 | 0.359 | 0.982 | 0.681 | 0.351
2 | NCI-H3122 | 0.696 | 0.585 | 0.356 | 0.258 | 0.231 | 0.159 | 0.371 | 0.459 | 0.314 | 1.01 | 0.613 | 0.432 | 0.742 | 0.63 | 0.489 | 0.971 | 0.956 | 0.538
3 | PC-3 [JPC-3] | 1.05 | 1.16 | 0.915 | 0.922 | 1 | 0.889 | 0.475 | 0.477 | 0.414 | 0.73 | 0.685 | 0.424 | 1 | 0.993 | 0.863 | 1.01 | 1.07 | 0.912
4 | PC-14 | 0.343 | 0.404 | 0.42 | 0.855 | 0.912 | 0.799 | 0.537 | 0.639 | 0.368 | 0.294 | 0.327 | 0.18 | 0.997 | 0.955 | 0.876 | 1.05 | 1.05 | 0.795
5 | RERF-LC-KJ | 0.883 | 0.763 | 0.562 | 0.736 | 0.814 | 0.679 | 0.416 | 0.371 | 0.28 | 0.867 | 0.554 | 0.514 | 0.865 | 0.583 | 0.627 | 0.942 | 0.733 | 0.571
